In ChEMBL document CHEMBL3400132, “Design, synthesis and evaluation of novel 5,6,7-trimethoxyflavone-6-chlorotacrine hybrids as potential multifunctional agents for the treatment of Alzheimer's disease” (Bioorg Med Chem Lett, 2015):
Calls of active or inactive are those of the source. The calls are words filed in the database; no cut-off is given here.

How the values were obtained:
Acetylcholinesterase [1] = biological target: Acetylcholinesterase (Electrophorus electricus, UniProt O42275); experiment: Inhibition of electric eel AChE using acetylthiocholine chloride as substrate after 15 mins by Ellman spectrophotometric method
Acetylcholinesterase [2] = biological target: Acetylcholinesterase (Homo sapiens, UniProt P22303); experiment: Inhibition of human erythrocyte AChE using acetylthiocholine chloride as substrate after 15 mins by Ellman spectrophotometric method
Cholinesterase = Cholinesterase (Equus caballus, UniProt P81908); experiment: Inhibition of equine serum BChE using acetylthiocholine chloride as substrate after 15 mins by Ellman spectrophotometric method
[3] = Selectivity index, ratio of IC50 for equine serum BChE to IC50 for electric eel AChE
[4] = Antioxidant activity assessed as Trolox equivalent per microM of compound after 15 mins by oxygen radical absorbance capacity fluorescein assay; format: physicochemical; conditions: 0.25 h
[5] = biological target: Amyloid-beta precursor protein (Homo sapiens) (UniProt P05067); experiment: Inhibition of self-induced Abeta(1 to 42) (unknown origin) aggregation at 25 uM after 24 hrs by Thioflavin T-based fluorometric assay
PC-12 = experiment: Protective activity against H2O2-induced rat PC12 cell injury assessed as cell viability incubated at 5 uM for 3 hrs before H2O2 addition measured after 5 hrs by MTT assay relative to untreated control; format: functional; conditions: read-out: Activity
[6] = biological target: Acetylcholinesterase (Electrophorus electricus) (UniProt O42275); experiment: Mixed-type inhibition of electric eel AChE using acetylthiocholine chloride as substrate after 15 mins by Lineweaver-Burk plot method
[7] = Permeability of the compound in DMSO-PBS/EtOH solution at 100 ug/ml by PAMPA; format: ADME; conditions: read-out: permeability

Sequence of Acetylcholinesterase (Homo sapiens, UniProt P22303) (P22303 whole entry): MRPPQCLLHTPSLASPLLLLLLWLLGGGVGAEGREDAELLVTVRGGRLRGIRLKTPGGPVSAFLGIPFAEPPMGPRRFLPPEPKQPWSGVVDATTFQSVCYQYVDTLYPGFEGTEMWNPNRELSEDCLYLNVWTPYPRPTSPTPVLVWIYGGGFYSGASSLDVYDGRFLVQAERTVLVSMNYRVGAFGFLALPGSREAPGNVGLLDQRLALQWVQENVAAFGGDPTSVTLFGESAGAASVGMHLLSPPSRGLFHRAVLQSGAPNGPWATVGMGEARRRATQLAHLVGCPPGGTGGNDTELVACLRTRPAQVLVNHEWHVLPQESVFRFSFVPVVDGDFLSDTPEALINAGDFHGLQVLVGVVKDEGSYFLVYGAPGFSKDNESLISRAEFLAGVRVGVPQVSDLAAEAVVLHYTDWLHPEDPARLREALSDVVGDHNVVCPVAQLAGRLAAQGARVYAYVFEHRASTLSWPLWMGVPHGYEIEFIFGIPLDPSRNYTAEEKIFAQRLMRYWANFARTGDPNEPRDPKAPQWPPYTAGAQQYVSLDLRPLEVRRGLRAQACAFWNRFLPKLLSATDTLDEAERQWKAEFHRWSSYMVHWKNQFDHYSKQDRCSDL
Sequence of Acetylcholinesterase (Electrophorus electricus, UniProt O42275) (O42275 whole entry): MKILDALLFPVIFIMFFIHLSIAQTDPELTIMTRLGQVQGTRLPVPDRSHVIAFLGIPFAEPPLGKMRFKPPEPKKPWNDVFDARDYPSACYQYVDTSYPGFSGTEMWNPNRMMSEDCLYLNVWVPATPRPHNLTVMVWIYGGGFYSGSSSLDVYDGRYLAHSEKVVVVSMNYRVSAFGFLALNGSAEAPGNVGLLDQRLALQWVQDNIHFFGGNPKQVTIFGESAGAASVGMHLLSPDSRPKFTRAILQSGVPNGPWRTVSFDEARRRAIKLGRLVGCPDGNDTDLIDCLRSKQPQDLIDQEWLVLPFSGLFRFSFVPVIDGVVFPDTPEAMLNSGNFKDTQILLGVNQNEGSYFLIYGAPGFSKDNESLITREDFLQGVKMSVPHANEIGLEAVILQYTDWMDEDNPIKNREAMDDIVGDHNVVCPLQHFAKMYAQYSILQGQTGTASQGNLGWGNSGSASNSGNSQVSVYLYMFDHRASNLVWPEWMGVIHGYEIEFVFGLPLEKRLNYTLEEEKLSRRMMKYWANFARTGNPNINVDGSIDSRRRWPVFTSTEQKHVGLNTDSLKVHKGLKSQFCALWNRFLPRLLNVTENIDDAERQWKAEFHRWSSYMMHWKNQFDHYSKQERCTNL
Sequence of Cholinesterase (P81908 whole entry): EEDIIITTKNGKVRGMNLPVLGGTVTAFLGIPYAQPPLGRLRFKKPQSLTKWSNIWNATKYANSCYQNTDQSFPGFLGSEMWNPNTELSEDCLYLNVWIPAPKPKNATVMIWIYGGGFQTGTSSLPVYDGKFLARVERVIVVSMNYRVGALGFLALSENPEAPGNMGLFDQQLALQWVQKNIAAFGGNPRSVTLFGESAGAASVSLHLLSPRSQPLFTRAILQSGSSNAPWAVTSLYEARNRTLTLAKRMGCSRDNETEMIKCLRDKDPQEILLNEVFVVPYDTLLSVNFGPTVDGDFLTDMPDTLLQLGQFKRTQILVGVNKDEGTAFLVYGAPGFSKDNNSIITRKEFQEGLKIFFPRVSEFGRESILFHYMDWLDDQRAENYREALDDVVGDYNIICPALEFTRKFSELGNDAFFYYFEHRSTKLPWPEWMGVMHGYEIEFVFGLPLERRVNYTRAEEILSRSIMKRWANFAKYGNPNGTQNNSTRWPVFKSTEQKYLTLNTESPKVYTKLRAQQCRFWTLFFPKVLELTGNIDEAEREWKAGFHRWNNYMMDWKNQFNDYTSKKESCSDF
Sequence of Amyloid-beta precursor protein (Homo sapiens) (P05067 whole entry): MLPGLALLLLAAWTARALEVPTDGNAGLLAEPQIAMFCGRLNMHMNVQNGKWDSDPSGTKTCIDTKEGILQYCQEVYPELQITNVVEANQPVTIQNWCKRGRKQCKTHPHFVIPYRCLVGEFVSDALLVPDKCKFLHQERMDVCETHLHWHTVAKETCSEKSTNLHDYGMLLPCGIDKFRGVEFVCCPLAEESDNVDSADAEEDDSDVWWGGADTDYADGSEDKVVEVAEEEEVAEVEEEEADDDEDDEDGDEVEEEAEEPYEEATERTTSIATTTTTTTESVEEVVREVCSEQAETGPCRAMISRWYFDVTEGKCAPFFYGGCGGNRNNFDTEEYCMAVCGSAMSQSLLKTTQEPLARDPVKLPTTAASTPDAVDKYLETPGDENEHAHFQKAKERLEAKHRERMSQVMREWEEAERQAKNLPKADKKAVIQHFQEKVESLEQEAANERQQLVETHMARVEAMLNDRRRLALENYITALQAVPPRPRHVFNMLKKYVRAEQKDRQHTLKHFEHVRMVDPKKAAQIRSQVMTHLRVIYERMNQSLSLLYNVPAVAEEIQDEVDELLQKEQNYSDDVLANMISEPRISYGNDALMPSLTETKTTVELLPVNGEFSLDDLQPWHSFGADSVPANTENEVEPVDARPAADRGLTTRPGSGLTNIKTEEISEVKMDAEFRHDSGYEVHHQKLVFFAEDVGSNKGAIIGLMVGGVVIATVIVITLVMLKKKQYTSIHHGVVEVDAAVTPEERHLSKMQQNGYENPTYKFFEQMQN
Sequence of Acetylcholinesterase (Electrophorus electricus) (O42275 24-633 limits assumed): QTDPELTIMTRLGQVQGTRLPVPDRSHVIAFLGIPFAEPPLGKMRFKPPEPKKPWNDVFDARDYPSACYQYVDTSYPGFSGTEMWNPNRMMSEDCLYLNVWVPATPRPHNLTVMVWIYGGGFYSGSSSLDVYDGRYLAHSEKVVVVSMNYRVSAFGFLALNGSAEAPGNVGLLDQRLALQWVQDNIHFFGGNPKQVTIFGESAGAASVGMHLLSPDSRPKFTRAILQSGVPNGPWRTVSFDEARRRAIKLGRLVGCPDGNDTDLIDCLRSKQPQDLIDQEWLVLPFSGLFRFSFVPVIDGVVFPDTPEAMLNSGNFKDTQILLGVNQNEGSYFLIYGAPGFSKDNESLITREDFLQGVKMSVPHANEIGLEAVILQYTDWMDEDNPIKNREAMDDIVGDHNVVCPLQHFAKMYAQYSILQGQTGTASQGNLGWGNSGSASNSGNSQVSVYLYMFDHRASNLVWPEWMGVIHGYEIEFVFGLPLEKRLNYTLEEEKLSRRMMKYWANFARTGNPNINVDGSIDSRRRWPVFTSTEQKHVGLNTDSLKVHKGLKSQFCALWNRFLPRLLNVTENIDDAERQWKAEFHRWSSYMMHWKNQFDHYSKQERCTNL

Compound | IC50 (Acetylcholinesterase [1]) | IC50 (Acetylcholinesterase [2]) | IC50 (Cholinesterase) | Ratio IC50 [3] | fold change (Trolox equivalents (ORAC)) [4] | inhibition [5] | viability at 5 µM (PC-12) | inhibition [6] | Papp at 100 ug/ml [7] | fold change (FC) [4]
COc1cc2oc(-c3ccc(OCC(=O)NCCCCCNc4c5c(nc6cc(Cl)ccc46)CCCC5)cc3)cc(=O)c2c(OC)c1OC | 12.8 nM | 6.9 nM | 463 nM | 36.2 | 0.55 | 33.8% | 45.3% | Active | 7.92 ×10⁻⁶ cm/s | –
COc1cc2oc(-c3ccc(O)cc3)cc(=O)c2c(OC)c1OC | > 100000 nM | – | > 100000 nM | – | 5.7 | 11.2% | – | – | – | –
COc1cc2oc(-c3cccc(OCC(=O)NCCCCCNc4c5c(nc6cc(Cl)ccc46)CCCC5)c3)cc(=O)c2c(OC)c1OC | 20.9 nM | 17.3 nM | 291 nM | 12.7 | 0.53 | 32.5% | – | – | – | –
COc1cc2oc(-c3ccc(OCC(=O)NCCCNc4c5c(nc6cc(Cl)ccc46)CCCC5)cc3)cc(=O)c2c(OC)c1OC | 29.4 nM | – | 549 nM | 13.9 | 0.62 | 25.6% | – | – | – | –
COc1cc2oc(-c3cccc(OCC(=O)NCCCCNc4c5c(nc6cc(Cl)ccc46)CCCC5)c3)cc(=O)c2c(OC)c1OC | 68.2 nM | – | 1020 nM | 15 | 0.55 | 31.8% | – | – | – | –
COc1cc2oc(-c3ccc(OCC(=O)NCCCCCCNc4c5c(nc6cc(Cl)ccc46)CCCC5)cc3)cc(=O)c2c(OC)c1OC | 41.3 nM | 21.6 nM | 321 nM | 10.3 | 0.52 | 35.5% | – | – | – | –
COc1cc2oc(-c3cccc(OCC(=O)NCCCCCCNc4c5c(nc6cc(Cl)ccc46)CCCC5)c3)cc(=O)c2c(OC)c1OC | 47.2 nM | 32.5 nM | 969 nM | 20.5 | 0.47 | 34.3% | – | – | – | –
COc1cc2oc(-c3cccc(O)c3)cc(=O)c2c(OC)c1OC | > 100000 nM | – | > 100000 nM | – | 3.6 | 17.4% | – | – | – | –
COc1cc2oc(-c3ccc(OCC(=O)NCCCCNc4c5c(nc6cc(Cl)ccc46)CCCC5)cc3)cc(=O)c2c(OC)c1OC | 52.8 nM | – | 1240 nM | 23.5 | 0.58 | 30.3% | – | – | – | –
COc1cc2oc(-c3cccc(OCC(=O)NCCCNc4c5c(nc6cc(Cl)ccc46)CCCC5)c3)cc(=O)c2c(OC)c1OC | 38.2 nM | – | 819 nM | 15.4 | 0.57 | 30.6% | – | – | – | –
Nc1c2c(nc3cc(Cl)ccc13)CCCC2 | – | – | 16.5 nM | – | – | – | – | – | – | 0.17
